This is an account of results in patent publication US7226925B2, “Compounds, their use and preparation” (Biovitrum AB, priority 2002, dated 2007).

Counter-ions that a name gives are not always drawn. Where only a bound is given, the exact number is not on record here.

For one data set, the target named is T1, human 5-HT1A receptor (Homo sapiens, UniProt P08908).
T1 construct: expressed in transfected cells; host or cells: CHO cell line
T1 sequence (P08908 1-422): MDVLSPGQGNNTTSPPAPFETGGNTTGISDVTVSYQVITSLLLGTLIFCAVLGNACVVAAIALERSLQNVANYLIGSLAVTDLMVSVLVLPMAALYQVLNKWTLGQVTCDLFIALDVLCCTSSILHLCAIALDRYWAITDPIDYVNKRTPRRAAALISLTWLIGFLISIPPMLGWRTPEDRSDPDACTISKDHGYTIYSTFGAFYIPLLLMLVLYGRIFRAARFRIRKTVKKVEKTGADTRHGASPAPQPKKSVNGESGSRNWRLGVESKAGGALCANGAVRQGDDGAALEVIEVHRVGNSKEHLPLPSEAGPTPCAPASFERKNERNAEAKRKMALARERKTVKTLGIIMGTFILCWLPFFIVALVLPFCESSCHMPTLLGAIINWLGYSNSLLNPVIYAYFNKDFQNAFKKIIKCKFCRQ
The data set is described as follows: Affinity assay, displacement of 3H-8-OH-DPAT, CHO cell line. In kind it is binding. The conditions noted are these: 3H-8-OH-DPAT radioligand, CHO cells. On the procedure:
(§1) The binding affinities of the compounds for the human 5-HT2A and 5-HT2B receptors in CHO cell lines were determined using ^3H-labelled lysergic acid diethyl amide (LSD) and 5-HT, respectively, as radioligands. The binding affinities of the compounds for the human 5-HT1A and 5-HT1B receptors in CHO cell lines were determined similarly using ^3H-labelled 8-hydroxy-2-(di-n-propylamino)tetralin (8-OH-DPAT) and 5-HT, respectively, as radioligands.

The target in data set [1] is T2, human 5-HT2B receptor (Homo sapiens, UniProt P41595).
T2 construct: expressed in transfected cells; host or cells: CHO cells
T2 sequence (P41595 whole entry): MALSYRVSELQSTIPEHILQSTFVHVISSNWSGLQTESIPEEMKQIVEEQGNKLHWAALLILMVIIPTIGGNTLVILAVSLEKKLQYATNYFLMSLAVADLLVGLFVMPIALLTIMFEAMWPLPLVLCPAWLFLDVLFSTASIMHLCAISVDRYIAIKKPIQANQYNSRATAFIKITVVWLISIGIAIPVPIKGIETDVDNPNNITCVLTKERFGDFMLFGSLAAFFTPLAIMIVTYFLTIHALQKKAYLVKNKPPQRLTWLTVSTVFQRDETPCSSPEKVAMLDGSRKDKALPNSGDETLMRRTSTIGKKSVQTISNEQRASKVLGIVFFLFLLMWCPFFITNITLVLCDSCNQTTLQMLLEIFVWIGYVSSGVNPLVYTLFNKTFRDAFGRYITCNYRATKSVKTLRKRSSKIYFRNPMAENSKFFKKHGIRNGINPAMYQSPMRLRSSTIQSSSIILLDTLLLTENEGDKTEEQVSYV
The data set is described as follows: Affinity assay, displacement of 3H-5-HT, CHO cell line. Conditions: 3H-5-HT radioligand, CHO cells. In kind it is binding. Here is the method:
as §1
On the technique in general: Loss of bound radioactivity is the signal in a displacement assay; it reports binding, not function.

The next data set concerns the target T3, human 5-HT1B receptor (Homo sapiens, UniProt P28222).
T3 construct: expressed in transfected cells; host or cells: CHO cell line
The data set is described as above. In kind it is binding. The conditions noted are these: 3H-5-HT radioligand, CHO cells. On the procedure: as §1

In data set [2] the target is T4, human 5-HT2C receptor (Homo sapiens, UniProt P28335).
T4 construct: expressed in transfected cells
T4 sequence (P28335 33-458): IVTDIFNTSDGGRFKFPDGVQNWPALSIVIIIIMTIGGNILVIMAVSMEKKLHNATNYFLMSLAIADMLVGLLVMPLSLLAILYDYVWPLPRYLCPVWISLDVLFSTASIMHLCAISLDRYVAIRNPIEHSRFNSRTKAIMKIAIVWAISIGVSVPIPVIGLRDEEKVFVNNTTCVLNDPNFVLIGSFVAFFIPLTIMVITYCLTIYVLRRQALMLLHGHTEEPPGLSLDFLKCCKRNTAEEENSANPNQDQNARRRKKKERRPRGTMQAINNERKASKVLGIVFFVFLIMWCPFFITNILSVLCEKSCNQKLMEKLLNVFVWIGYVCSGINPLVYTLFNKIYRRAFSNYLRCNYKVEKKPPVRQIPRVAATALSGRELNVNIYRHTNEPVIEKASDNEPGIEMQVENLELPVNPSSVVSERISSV
Kind of data set: In vitro functional assay, intracellular calcium mobilisation in transfected HEK293 cells (FLUO-3). In kind it is cell-based. The conditions noted are these: for EC50: calcium mobilisation, HEK293 cells; for Efficacy 5-HT2C: maximum response at 1 μM relative to maximum response of 5-HT at 1 μM. (Calcium flux is commonly read through the fluorescence of an indicator in the cells.)
Description: The agonist efficacy at the 5-HT2C receptor of the compounds in the Examples was determined by the ability of each compound to mobilise intracellular calcium in transfected HEK293 cells, stably expressing the human 5-HT2C receptor protein, using the calcium-chelating fluorescent dye FLUO-3 (Sigma, St. Louis, Mo., U.S.A.).

The target in data set [3] is T4, human 5-HT2C receptor. The data set is described as follows: Affinity assay, displacement of 3H-5-HT, membranes of transfected HEK293 cells, Scintillation Proximity Assay. Format: binding. Conditions: 3H-5-HT radioligand.
Description: The receptor affinity of compounds in the Examples was determined in competition experiments, where the ability of each compound in serial dilution to displace ^3H-labelled 5-HT, bound to membranes prepared from a transfected HEK293 cell line stably expressing the human 5-HT2C receptor protein, was monitored by Scintillation Proximity Assay technology. Non-specific binding was defined using 5 μM mianserin.
The target of data set [4] is T5, human 5-HT2A receptor (Homo sapiens, UniProt P28223).
T5 construct: expressed in transfected cells; host or cells: CHO cells
T5 sequence (P28223 whole entry): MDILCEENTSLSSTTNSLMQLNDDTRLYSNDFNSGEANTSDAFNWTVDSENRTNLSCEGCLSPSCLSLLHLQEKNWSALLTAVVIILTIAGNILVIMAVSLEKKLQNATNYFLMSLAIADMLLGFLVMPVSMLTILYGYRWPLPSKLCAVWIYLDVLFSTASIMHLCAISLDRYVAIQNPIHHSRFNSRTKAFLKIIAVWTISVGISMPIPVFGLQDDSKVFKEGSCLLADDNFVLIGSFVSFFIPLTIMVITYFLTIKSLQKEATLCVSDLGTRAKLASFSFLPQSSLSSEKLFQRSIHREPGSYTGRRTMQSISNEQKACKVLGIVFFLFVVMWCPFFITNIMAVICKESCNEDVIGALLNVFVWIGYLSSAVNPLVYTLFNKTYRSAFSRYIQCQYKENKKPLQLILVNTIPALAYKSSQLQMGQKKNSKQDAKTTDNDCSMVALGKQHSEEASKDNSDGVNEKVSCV
The data set is described as follows: Affinity assay, displacement of 3H-LSD, CHO cell line. In kind it is binding. The conditions noted are these: 3H-LSD radioligand, CHO cells. On the procedure:
as §1

Data set [5] addresses T2, human 5-HT2B receptor. The data set is described as follows: In vitro functional assay, intracellular calcium mobilisation in CHO cells. In kind it is cell-based. Conditions: for EC50: calcium mobilisation, CHO cells; for Efficacy 5-HT2B: maximum response at 1 μM relative to maximum response of 5-HT at 1 μM. Here is the method:
(§2) The ability of the compounds to mobilise intracellular calcium at the 5HT2A and 5-HT2B receptors was determined similarly using CHO cells expressing the human 5-HT2A or human 5-HT2B receptors.
(§3) The maximum functional responses of the compounds, at 1 μM, at the 5-HT2A, 5-HT2B and 5-HT2C receptors are expressed relative to the maximum response of 5-HT (serotonin) at a concentration of 1 μM.

Data set [6] deals with T5, human 5-HT2A receptor. Described as above. Conditions: for EC50: calcium mobilisation, CHO cells; for Efficacy 5-HT2A: maximum response at 1 μM relative to maximum response of 5-HT at 1 μM. Format: cell-based. On the procedure:
as §2, §3

T3 sequence (P28222 whole entry): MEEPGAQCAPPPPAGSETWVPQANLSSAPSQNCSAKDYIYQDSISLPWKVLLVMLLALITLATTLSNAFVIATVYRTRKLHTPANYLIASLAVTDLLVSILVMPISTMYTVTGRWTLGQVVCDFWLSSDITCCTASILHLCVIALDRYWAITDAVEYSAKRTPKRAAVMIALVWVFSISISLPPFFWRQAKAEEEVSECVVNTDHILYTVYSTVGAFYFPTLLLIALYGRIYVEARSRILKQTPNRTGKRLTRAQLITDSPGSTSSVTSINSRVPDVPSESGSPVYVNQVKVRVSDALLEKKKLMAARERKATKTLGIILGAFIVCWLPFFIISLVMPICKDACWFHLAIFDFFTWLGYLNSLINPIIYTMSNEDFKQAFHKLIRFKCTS

The melting point is the temperature of the solid-liquid transition. Regarding `C[C@@H]1CNCCN1c1nccnc1OCCOc1cccnc1OCCN(C)C` (as salt: acetate) [Example 1, N,N-Dimethyl-(2-(3-[2-(2-(R)-methyl-3,4,5,6-tetrahydro-2H-[1,2′]bipyrazinyl-3′-yloxy)-ethoxy]-pyridin-2-yloxy)-ethyl)-amine], the melting point amounted to 75 °C.

`CC(C)N(CCOc1ncccc1OCCOc1nccnc1N1CCNC[C@H]1C)C(C)C` (as salt: acetate) [Example 2, N,N-Diisopropyl-(2-(3-[2-(2-(R)-methyl-3,4,5,6-tetrahydro-2H-[1,2′]bipyrazinyl-3′-yloxy)-ethoxy]-pyridin-2-yloxy)-ethyl)-amine]: the melting point came to 87 °C.

As a reminder, the Ki is the dissociation constant of the complex between target and ligand, obtained from inhibition or displacement. A word on the EC50: it is the concentration needed to bring the measured effect to its halfway point. Turning to `C[C@@H]1CNCCN1c1nccnc1OCCOc1cccnc1OCCN(C)C` [Example 1, N,N-Dimethyl-(2-(3-[2-(2-(R)-methyl-3,4,5,6-tetrahydro-2H-[1,2′]bipyrazinyl-3′-yloxy)-ethoxy]-pyridin-2-yloxy)-ethyl)-amine], the Ki on human 5-HT1A receptor is 800 nM; on human 5-HT2B receptor [1], over 1000 nM; at human 5-HT1B receptor, over 1000 nM; at human 5-HT2C receptor [3] it was 12 nM; at human 5-HT2A receptor [4], over 1000 nM. Also, the values for the concentration giving a half-maximal response (EC50) on human 5-HT2C receptor [2], on human 5-HT2B receptor [5] and on human 5-HT2A receptor [6] were 4.2 nM, 1940 nM and 1200 nM, respectively. Further, on human 5-HT2C receptor [2], the “Efficacy 5-HT2C” value came out at 117%. Besides, the “Efficacy 5-HT2B” value on human 5-HT2B receptor [5] is listed as 16%. In addition, at human 5-HT2A receptor [6], the “Efficacy 5-HT2A” value came out at 14%.

As for `CC(C)N(CCOc1ncccc1OCCOc1nccnc1N1CCNC[C@H]1C)C(C)C` [Example 2, N,N-Diisopropyl-(2-(3-[2-(2-(R)-methyl-3,4,5,6-tetrahydro-2H-[1,2′]bipyrazinyl-3′-yloxy)-ethoxy]-pyridin-2-yloxy)-ethyl)-amine], the inhibition constant (Ki) is 380 nM at human 5-HT1A receptor; over 1000 nM at human 5-HT2B receptor [1]; 200 nM at human 5-HT1B receptor; 10 nM on human 5-HT2C receptor [3]; over 1000 nM on human 5-HT2A receptor [4]. The 50% effective concentration (EC50) on human 5-HT2C receptor [2] was 3.9 nM; at human 5-HT2B receptor [5], 900 nM; on human 5-HT2A receptor [6], 260 nM. Further, the “Efficacy 5-HT2C” value on human 5-HT2C receptor [2] is given as 111%. In addition, the “Efficacy 5-HT2B” value on human 5-HT2B receptor [5] is reported as 33%. For the same compound, the “Efficacy 5-HT2A” value at human 5-HT2A receptor [6] was found to be 40%.
